{"source": "patent US20200121706A1", "about": "“METHOD FOR INHIBITING MYOPIA AND APPLICATION IN PREPARING DRUG” (WENZHOU MEDICAL UNIVERSITY, priority 2017, published 2020)", "assay_type_in_all_cases": "in vivo, Cavia porcellus", "key": {"[1]": {"tested_on": "scleral hypoxia-inducible factor-1α (HIF-1α)", "assay": "Western Blot of scleral HIF-1α after administration in form-deprived eyes", "conditions": "sclera removed after administration", "protocol": "(§1) The experimental animals used in this experiment were 3-week-old British shorthair three-colored guinea pigs (Cavia porcellus). Mask technique was used as a model of monocular form-deprivation (FD) myopia. In the myopic sclera HIF-1α expression experiment, the animals were randomly divided into three groups: the normal control group, FD 1 week group, and FD 1 week & 2-day recovery group. […] In the administration experiment, HIF-1α inhibitors salidroside and formononetin were administered to the form-deprived eyes by periocular injection to inhibit HIF-1α activity. The animals in the salidroside injection experiment were randomly divided into three groups: form-deprivation+solvent control group (FD+0.9% normal saline (NS)), form-deprivation+low concentration drug group (FD+SDS 1 μg), and form-deprivation+high concentration drug group (FD+SDS 10 μg). […] Before the experiment and after 2 weeks and 4 weeks of administration respectively, the diopter was measured with an eccentric infrared photo-refractor (EIR), and the ocular axis parameters such as vitreous chamber depth and ocular axis length were measured with amplitude-mode ultrasound (11 MHz). After the administration, the sclera was removed and the expression of HIF-1α and collagen type I were detected by Western Blot."}, "collagen type I": {"tested_on": "collagen type I", "assay": "Western Blot of scleral collagen type I after administration in form-deprived eyes", "conditions": "sclera removed after administration", "protocol": "as §1"}, "form-deprivation myopia": {"tested_on": "form-deprivation myopia", "assay": "Monocular form-deprivation (FD) myopia model, periocular injection; diopter by eccentric infrared photo-refractor, ocular axis parameters by A-mode ultrasound", "conditions": "guinea pig FD eyes, daily periocular injection, after 4 weeks", "protocol": "The experimental animals used in this experiment were 3-week-old British shorthair three-colored guinea pigs (Cavia porcellus). Mask technique was used as a model of monocular form-deprivation (FD) myopia. In the myopic sclera HIF-1α expression experiment, the animals were randomly divided into three groups: the normal control group, FD 1 week group, and FD 1 week & 2-day recovery group. […] In the administration experiment, HIF-1α inhibitors salidroside and formononetin were administered to the form-deprived eyes by periocular injection to inhibit HIF-1α activity. The animals in the salidroside injection experiment were randomly divided into three groups: form-deprivation+solvent control group (FD+0.9% normal saline (NS)), form-deprivation+low concentration drug group (FD+SDS 1 μg), and form-deprivation+high concentration drug group (FD+SDS 10 μg). The animals in the formononetin injection experiment were randomly divided into three groups: form-deprivation+solvent control group (FD+DMSO), form-deprivation+low concentration drug group (FD+FMN 0.5 μg), and form-deprivation+high concentration drug group (FD+FMN 5 μg). Periocular injection of drugs was performed daily at 9 am for 4 weeks without treatment of the contralateral eyes. Before the experiment and after 2 weeks and 4 weeks of administration respectively, the diopter was measured with an eccentric infrared photo-refractor (EIR), and the ocular axis parameters such as vitreous chamber depth and ocular axis length were measured with amplitude-mode ultrasound (11 MHz). After the administration, the sclera was removed and the expression of HIF-1α and collagen type I were detected by Western Blot."}}}
{"smiles": "OC[C@H]1O[C@@H](OCCc2ccc(O)cc2)[C@H](O)[C@@H](O)[C@@H]1O", "note": "[salidroside]", "values": [{"measurement": "up-regulation of HIF-1α expression in the sclera of FDM eyes", "setting": "[1]", "result": "inhibited"}, {"measurement": "down-regulation of collagen (type I) expression in the sclera of FDM eyes", "setting": "collagen type I", "result": "inhibited"}, {"measurement": "extension of ocular axis (ocular axis length difference) compared with solvent-injection group", "setting": "form-deprivation myopia", "result": "relatively smaller"}, {"measurement": "extension of vitreous chamber (vitreous chamber depth difference) compared with solvent-injection group", "setting": "form-deprivation myopia", "result": "relatively smaller"}, {"measurement": "myopia formation (diopter difference between experimental eyes and contralateral eyes) compared with form-deprivation solvent-injection group", "setting": "form-deprivation myopia", "result": "significantly reduced"}]}
